Measurements taken from patent US9175011B2, “Morpholino substituted urea or carbamate derivatives as MTOR inhibitors” (CELLZOME LIMITED, priority 2011, dated 2015).

Key:
PI3K gamma (PI3Kg) = target: T1, PI3K gamma (PI3Kg) (Homo sapiens, UniProt P48736); assay: kinobeads assay, PI3K gamma; type: binding; settings: Jurkat cell lysate, read-out: Inhibition values (IC50) PI3Kg
T1 construct: Jurkat cells were homogenized in a Potter S homogenizer in lysis buffer; endogenous in cells; host or cells: Jurkat, clone E6-1 (ATCC TIB-152) lysate
Experimental: (§1) The compounds of the present invention as described were tested in the mTOR kinobeads assay as described below. Briefly, test compounds (at various concentrations) and the affinity matrix (1:1 mixture of beads with immobilized phenylthiazole ligand 1 and beads with immobilized phenylmorpholin-chromen ligand; WO 2009/098021) were added to cell lysate aliquots and allowed to bind to the proteins in the lysate sample. After the incubation time the beads with captured proteins were separated from the lysate. Bound proteins were then eluted and the presence of mTOR, PI3K alpha (PI3Kα), PI3K beta (PI3Kb), PI3K gamma (PI3Kg), PI3K delta (PI3Kd) and DNA-dependent protein kinase (DNA-PK) was detected and quantified using a specific antibody in a dot blot procedure and the Odyssey infrared detection system. Dose response curves for individual kinases were generated and IC50 values calculated. Kinobeads assays for PI3 kinases (WO-A 2008/015013) and for kinase selectivity profiling (WO 2009/098021) have been previously described.
(§2) The affinity matrix (beads with immobilized phenylmorpholin-chromen ligand) was washed three times with 15 ml of 1×DP buffer containing 0.2% NP40 (IGEPAL® CA-630, Sigma, #13021) and then resuspended in 5.5 ml of 1×DP buffer containing 0.2% NP40 (10% beads slurry).
(§3) 5×DP buffer: 250 mM Tris-HCl pH 7.4, 25% Glycerol, 7.5 mM MgCl2, 750 mM NaCl, 5 mM Na3VO4, filter the 5×-lysis buffer through 0.22 μm filter and store in aliquots at −80° C. The 5×DP buffer is diluted to 1×DP buffer containing 1 mM DTT and 25 mM NaF.
(§4) Stock solutions of test compounds were prepared in DMSO. In a 96 well plate 30 μl solution of diluted test compounds at 5 mM in DMSO were prepared. Starting with this solution a 1:3 dilution series (9 steps) was prepared. For control experiments (no test compound) a buffer containing 2% DMSO was used. Compound PI-103 served as a positive control (Calbiochem catalogue number 528100).
(§5) Jurkat cells (ATCC catalogue number TIB-152 Jurkat, clone E6-1) were grown in 1 liter Spinner flasks (Integra Biosciences, #182101) in suspension in RPMI 1640 medium (Invitrogen, #21875-034) supplemented with 10% Fetal Bovine Serum (Invitrogen) at a density between 0.15×10^6 and 1.2×10^6 cells/ml. Cells were harvested by centrifugation, washed once with 1×PBS buffer (Invitrogen, #14190-094) and cell pellets were frozen in liquid nitrogen and subsequently stored at −80° C.
(§6) Jurkat cells were homogenized in a Potter S homogenizer in lysis buffer: 50 mM Tris-HCl, 0.8% NP40, 5% glycerol, 150 mM NaCl, 1.5 mM MgCl2, 25 mM NaF, 1 mM sodium vanadate, 1 mM DTT, pH 7.5. One complete EDTA-free tablet (protease inhibitor cocktail, Roche Diagnostics, 1873580) per 25 ml buffer was added. The material was dounced 10 times using a mechanized POTTER S, transferred to 50 ml falcon tubes, incubated for 30 minutes on ice and spun down for 10 min at 20,000 g at 4° C. (10,000 rpm in Sorvall SLA600, precooled). The supernatant was transferred to an ultracentrifuge (UZ)-polycarbonate tube (Beckmann, 355654) and spun for 1 hour at 100.000 g at 4° C. (33.500 rpm in Ti50.2, precooled). The supernatant was transferred again to a fresh 50 ml falcon tube, the protein concentration was determined by a Bradford assay (BioRad) and samples containing 50 mg of protein per aliquot were prepared. The samples were immediately used for experiments or frozen in liquid nitrogen and stored frozen at −80° C.
(§7) Jurkat cell lysate (approximately 50 mg protein per plate) was thawed in a water bath at room temperature and then kept on ice. To the thawed cell lysate 1×DP 0.8% NP40 buffer containing protease inhibitors (1 tablet for 25 ml buffer; EDTA-free protease inhibitor cocktail; Roche Diagnostics 1873580) was added in order to reach a final protein concentration of 5 mg/ml total protein. The diluted cell lysate was stored on ice. […]

mTOR = target: T2, mTOR (Homo sapiens, UniProt P42345); assay: mTOR kinobeads assay (Jurkat cell lysate, dot blot detection); type: binding; settings: read-out: Inhibition values (IC50) mTor
T2 construct: Jurkat cells were homogenized in a Potter S homogenizer in lysis buffer; endogenous in cells; host or cells: Jurkat, clone E6-1 (ATCC TIB-152) lysate
Experimental: as §1, §2, §3, §4, §5, §6, §7

PI3K beta (PI3Kb) = target: T3, PI3K beta (PI3Kb) (Homo sapiens, UniProt P42338); assay: kinobeads assay, PI3K beta; type: binding; settings: Jurkat cell lysate, read-out: Inhibition values (IC50) PI3Kb
T3 construct: Jurkat cells were homogenized in a Potter S homogenizer in lysis buffer; endogenous in cells; host or cells: Jurkat, clone E6-1 (ATCC TIB-152) lysate
Experimental: as §1, §2, §3, §4, §5, §6, §7

PI3K alpha (PI3Kα) = target: T4, PI3K alpha (PI3Kα) (Homo sapiens, UniProt P42336); assay: kinobeads assay, PI3K alpha; type: binding; settings: Jurkat cell lysate, read-out: Inhibition values (IC50) PI3Ka
T4 construct: Jurkat cells were homogenized in a Potter S homogenizer in lysis buffer; endogenous in cells; host or cells: Jurkat, clone E6-1 (ATCC TIB-152) lysate
Experimental: as §1, §2, §3, §4, §5, §6, §7

[1] = test system: S6RP serine-240/244 phosphorylation; assay: In vitro phospho-S6 cellular assay (HEK293T/17); type: cell-based; settings: Homo sapiens; HEK293T/17 cells, 2 hours, pS6RP Ser240/244; read-out: Inhibition values (IC50) pS6
Excerpt: Activation of mTOR signaling results in phosphorylation of several downstream targets. In cells, mTOR exists in two different protein complexes. The mTOR Complex-1 (mTORC1) phosphorylates and activates S6 Kinase 1 (S6K1) and S6 Kinase 2 (S6K2) (also known as p70S6K) which then phosphorylate S6 Ribosomal Protein (S6RP) (also known as RPS6)3. S6RP is phosphorylated on serine 235, senile 236, serine 240 and serine 244 by both pS6K1 and pS6K2. The mTOR Complex-2 (mTORC2) phosphorylates AKT on serine 473 which activates the AKT signaling pathway.
The assay measures a test compound's inhibition of S6RP serine-240/244 phosphorylation and inhibition of Akt serine-473 phosphorylation in human embryonic kidney derived HEK293T/17 cells (ATCC CRL-11268).
The HEK293T/17 cell line is maintained in DMEM media (Invitrogen catalogue number 41965-039) supplemented with 10% FCS at 37° C. in a 5% CO2 humidified incubator. Cells are seeded in 96-well plates at 40,000 cells/well (pS6RP S240/244 assay) or 80,000 cells/well (pAkt 5473 assay) in 90 μl growth media (DMEM, 2% FCS). Plates are incubated for 1 hour in a humidified incubator to allow the cells to adhere. Cells are treated with 8 concentrations of test compounds or DMSO alone for controls (final DMSO concentration 0.1%) and incubated at 37° C. for 2 hours. Then 20 μl of 5× concentrated lysis buffer (750 mM NaCl, 100 mM Tris pH7.4, 5 mM ADTA, 5 mM EGTA, 5% Triton X-100) is added, plates are sealed and incubated for 15 minutes at 4° C. with gentle shaking After cell lysis, 25 μl cell lysate is transferred to a MesoScale plate coated with an antibody to pS6RP Ser240/244 (MesoScale Discovery K150DGD-3) or an antibody to pAkt Ser 473 (MesoScale Discovery K151DGD-3). Plates have been blocked before by incubation with 150 μl MesoScale Discovery Blocking Solution-A for 1 hour at room temperature followed by washing with 150 μl 1×Tris wash buffer per well. After the transfer of the cell lysate to the MSD plate, the pS6RP (or pAkt) protein is captured on the coated antibody by incubation at room temperature for 1 hour with gentle shaking. After the capture step the plate is washed three times with 150 μl of 1× Tris wash buffer per well. Then 25 μl detection antibody conjugated with a Sulfo-Tag is added and incubated for 1 hour at room temperature with gentle shaking. Subsequently the antibody solution is removed and the plate is washed 3 times with 150 μl 1×Tris wash buffer per well and 150 μl Read buffer is added. The plates are analysed on a MSD 2400 Plate Reader (MesoScale Discovery). Data analysis is performed using nonlinear regression for a sigmoidal dose-response with a variable slope.

PI3K delta (PI3Kd) = target: T5, PI3K delta (PI3Kd) (Homo sapiens, UniProt O00329); assay: kinobeads assay, PI3K delta; type: binding; settings: Jurkat cell lysate, read-out: Inhibition values (IC50) PI3Kd
T5 construct: Jurkat cells were homogenized in a Potter S homogenizer in lysis buffer; endogenous in cells; host or cells: Jurkat, clone E6-1 (ATCC TIB-152) lysate
Experimental: as §1, §2, §3, §4, §5, §6, §7

[2] = target: T6, DNA-dependent protein kinase (DNA-PK) (Homo sapiens, UniProt P78527); assay: kinobeads assay, DNA-PK; type: binding; settings: Jurkat cell lysate, read-out: Inhibition values (IC50) DNA-PK
T6 construct: Jurkat cells were homogenized in a Potter S homogenizer in lysis buffer; endogenous in cells; host or cells: Jurkat, clone E6-1 (ATCC TIB-152) lysate
T6 sequence (P78527 whole entry): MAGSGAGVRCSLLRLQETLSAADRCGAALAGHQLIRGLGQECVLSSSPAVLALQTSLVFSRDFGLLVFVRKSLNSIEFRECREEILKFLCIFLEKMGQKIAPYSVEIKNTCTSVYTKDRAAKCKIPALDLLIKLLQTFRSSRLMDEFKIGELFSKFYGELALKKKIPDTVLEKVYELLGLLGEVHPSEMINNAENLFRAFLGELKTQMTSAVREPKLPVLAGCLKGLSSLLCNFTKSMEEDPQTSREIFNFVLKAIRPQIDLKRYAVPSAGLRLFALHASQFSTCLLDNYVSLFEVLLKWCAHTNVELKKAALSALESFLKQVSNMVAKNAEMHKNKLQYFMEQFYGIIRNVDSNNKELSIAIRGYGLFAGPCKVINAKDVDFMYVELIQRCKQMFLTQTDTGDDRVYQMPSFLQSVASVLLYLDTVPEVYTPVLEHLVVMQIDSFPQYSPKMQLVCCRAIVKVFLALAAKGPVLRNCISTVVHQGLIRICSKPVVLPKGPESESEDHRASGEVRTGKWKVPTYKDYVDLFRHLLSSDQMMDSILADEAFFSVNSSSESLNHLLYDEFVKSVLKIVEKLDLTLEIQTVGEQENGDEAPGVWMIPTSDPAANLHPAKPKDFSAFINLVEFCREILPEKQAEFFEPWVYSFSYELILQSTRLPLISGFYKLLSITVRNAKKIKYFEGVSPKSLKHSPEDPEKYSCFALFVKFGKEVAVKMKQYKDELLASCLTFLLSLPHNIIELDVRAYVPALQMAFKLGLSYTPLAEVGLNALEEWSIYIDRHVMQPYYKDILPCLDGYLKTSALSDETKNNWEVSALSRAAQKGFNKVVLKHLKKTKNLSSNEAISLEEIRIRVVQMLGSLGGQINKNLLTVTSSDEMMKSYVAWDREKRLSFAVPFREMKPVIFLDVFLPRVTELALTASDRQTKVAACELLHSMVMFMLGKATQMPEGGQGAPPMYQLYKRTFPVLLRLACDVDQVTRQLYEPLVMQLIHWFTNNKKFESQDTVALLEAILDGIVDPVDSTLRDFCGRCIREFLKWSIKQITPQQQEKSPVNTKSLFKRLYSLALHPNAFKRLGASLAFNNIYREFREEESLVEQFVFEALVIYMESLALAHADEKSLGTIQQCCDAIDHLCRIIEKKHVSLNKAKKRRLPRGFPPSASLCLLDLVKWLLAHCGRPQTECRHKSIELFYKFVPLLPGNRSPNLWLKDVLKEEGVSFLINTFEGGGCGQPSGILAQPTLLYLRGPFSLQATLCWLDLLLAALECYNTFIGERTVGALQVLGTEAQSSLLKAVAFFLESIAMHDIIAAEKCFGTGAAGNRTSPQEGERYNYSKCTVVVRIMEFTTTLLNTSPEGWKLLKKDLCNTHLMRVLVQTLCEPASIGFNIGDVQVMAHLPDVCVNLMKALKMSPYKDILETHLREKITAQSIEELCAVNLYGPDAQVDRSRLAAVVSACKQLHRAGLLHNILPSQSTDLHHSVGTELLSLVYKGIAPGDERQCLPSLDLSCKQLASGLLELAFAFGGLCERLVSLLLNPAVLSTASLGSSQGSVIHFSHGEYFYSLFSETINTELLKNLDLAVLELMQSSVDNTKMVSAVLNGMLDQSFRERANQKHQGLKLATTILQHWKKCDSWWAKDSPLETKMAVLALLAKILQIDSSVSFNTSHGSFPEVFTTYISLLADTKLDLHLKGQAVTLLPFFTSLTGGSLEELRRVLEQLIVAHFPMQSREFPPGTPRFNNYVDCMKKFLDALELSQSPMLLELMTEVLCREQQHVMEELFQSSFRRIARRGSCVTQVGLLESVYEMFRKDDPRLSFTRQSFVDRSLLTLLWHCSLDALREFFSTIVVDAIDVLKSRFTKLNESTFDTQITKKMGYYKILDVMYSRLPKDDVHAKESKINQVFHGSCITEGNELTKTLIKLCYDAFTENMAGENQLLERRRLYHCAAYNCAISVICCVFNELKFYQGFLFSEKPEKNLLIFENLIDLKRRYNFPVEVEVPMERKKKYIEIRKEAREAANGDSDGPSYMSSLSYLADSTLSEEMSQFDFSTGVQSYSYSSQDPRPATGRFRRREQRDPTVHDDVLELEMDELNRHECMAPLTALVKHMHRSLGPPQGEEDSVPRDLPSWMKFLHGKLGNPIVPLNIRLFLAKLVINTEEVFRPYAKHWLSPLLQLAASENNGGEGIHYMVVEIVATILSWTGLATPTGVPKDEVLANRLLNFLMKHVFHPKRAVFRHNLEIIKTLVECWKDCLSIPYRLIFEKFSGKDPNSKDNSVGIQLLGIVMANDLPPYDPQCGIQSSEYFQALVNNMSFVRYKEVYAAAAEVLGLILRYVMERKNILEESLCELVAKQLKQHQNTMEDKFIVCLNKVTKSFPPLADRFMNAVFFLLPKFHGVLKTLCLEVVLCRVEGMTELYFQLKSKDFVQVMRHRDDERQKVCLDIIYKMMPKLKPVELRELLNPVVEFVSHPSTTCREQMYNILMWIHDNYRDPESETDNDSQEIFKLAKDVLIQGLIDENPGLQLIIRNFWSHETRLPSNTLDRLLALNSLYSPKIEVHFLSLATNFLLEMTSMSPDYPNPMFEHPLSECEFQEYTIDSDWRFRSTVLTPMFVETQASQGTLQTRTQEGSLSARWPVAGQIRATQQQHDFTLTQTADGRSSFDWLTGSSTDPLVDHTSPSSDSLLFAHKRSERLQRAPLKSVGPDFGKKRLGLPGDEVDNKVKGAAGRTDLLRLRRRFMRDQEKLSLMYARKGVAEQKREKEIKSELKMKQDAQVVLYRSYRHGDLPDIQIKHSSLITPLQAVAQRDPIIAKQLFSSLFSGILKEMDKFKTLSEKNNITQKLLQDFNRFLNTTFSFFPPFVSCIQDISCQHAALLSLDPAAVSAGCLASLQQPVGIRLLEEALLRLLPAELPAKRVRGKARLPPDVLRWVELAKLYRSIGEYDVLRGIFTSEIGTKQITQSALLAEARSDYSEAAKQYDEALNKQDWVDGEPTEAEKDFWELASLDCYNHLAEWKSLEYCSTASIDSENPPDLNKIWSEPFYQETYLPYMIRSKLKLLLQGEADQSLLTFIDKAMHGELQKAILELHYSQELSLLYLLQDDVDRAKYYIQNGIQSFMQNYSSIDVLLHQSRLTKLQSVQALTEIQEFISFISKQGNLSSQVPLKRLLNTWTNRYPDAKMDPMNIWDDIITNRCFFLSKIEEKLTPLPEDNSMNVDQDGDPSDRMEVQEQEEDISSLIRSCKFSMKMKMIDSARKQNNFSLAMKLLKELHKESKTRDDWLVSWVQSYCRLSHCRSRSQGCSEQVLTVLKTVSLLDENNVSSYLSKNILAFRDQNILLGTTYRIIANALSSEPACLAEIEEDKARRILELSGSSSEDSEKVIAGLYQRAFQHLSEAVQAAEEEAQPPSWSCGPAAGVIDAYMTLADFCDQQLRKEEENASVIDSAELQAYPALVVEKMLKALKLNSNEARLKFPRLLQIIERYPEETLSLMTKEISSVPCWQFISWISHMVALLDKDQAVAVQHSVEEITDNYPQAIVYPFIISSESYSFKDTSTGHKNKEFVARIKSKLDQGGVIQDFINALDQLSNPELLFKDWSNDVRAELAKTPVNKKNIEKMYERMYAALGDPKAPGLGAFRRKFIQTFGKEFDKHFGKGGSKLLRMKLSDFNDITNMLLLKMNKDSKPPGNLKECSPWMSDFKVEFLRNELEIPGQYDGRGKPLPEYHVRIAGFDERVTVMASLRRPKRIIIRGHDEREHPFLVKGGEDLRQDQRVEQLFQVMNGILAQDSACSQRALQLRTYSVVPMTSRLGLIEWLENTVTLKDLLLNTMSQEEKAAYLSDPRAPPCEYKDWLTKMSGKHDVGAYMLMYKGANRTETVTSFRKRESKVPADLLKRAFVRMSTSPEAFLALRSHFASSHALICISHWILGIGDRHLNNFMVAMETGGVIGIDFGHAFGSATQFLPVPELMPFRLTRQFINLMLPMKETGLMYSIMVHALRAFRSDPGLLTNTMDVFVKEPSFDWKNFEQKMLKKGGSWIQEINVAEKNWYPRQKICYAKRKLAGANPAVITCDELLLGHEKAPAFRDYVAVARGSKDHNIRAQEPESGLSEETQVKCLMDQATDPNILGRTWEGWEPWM
Experimental: as §1, §2, §3, §4, §5, §6, §7

SMILES | IC50 (PI3K gamma (PI3Kg)) | IC50 (mTOR) | IC50 (PI3K beta (PI3Kb)) | IC50 (PI3K alpha (PI3Kα)) | IC50 [1] | IC50 (PI3K delta (PI3Kd)) | IC50 [2]
C[C@H]1COCCN1c1nc(-c2ccc(NC(=O)Nc3cccnc3)cc2)nc(-c2ccccc2S(C)(=O)=O)n1 [Example 3, (S)-1-(4-(4-(3-methylmorpholino)-6-(2-(methylsulfonyl)phenyl)-1,3,5-triazin-2-yl)phenyl)-3-(pyridin-3-yl)urea] | > 10 µM | 0.1 to 1 µM | > 10 µM | > 10 µM | < 0.1 µM | > 10 µM | > 10 µM
C[C@H]1COCCN1c1nc(-c2ccc(NC(=O)NC3COC3)cc2)nc(-c2ccccc2S(C)(=O)=O)n1 [Example 9, (S)-1-(4-(4-(3-methylmorpholin)-6-(2-(methylsulfonyl)phenyl)-1,3,5-triazin-2-yl)phenyl)-3-(oxetan-3-yl)urea] | > 10 µM | 0.1 to 1 µM | > 10 µM | > 10 µM | 0.1 to 1 µM | > 10 µM | > 10 µM
CS(=O)(=O)c1ccccc1-c1nc(-c2ccc(NC(=O)NC3CC3)cc2)nc(N2CC3CCC(C2)O3)n1 [Example 11, 1-(4-(4-(8-oxa-3-azabicyclo[3.2.1]octan-3-yl)-6-(2-(methylsulfonyl)phenyl)-1,3,5-triazin-2-yl)phenyl)-3-cyclopropylurea] | > 10 µM | < 0.1 µM | > 10 µM | > 10 µM | < 0.1 µM | > 10 µM | > 10 µM

Next, values leading:

IC50 (PI3K gamma (PI3Kg)) | IC50 (mTOR) | IC50 (PI3K beta (PI3Kb)) | IC50 (PI3K alpha (PI3Kα)) | IC50 [1] | IC50 (PI3K delta (PI3Kd)) | IC50 [2] | SMILES
> 10 µM | 0.1 to 1 µM | > 10 µM | > 10 µM | 0.1 to 1 µM | > 10 µM | > 10 µM | CS(=O)(=O)c1ccccc1-c1nc(-c2ccc(NC(=O)NC3CC3)cc2)nc(N2CCOCC2)n1 [Example 12, 1-cyclopropyl-3-(4-(4-(2-(methylsulfonyl)phenyl)-6-morpholino-1,3,5-triazin-2-yl)phenyl)urea]
> 10 µM | 0.1 to 1 µM | > 10 µM | > 10 µM | < 0.1 µM | > 10 µM | > 10 µM | C[C@@H]1COCCN1c1nc(-c2ccc(NC(=O)NC3CC3)cc2)nc(-c2ccccc2S(C)(=O)=O)n1 [Example 13, (R)-1-cyclopropyl-3-(4-(4-(3-methylmorpholino)-6-(2-(methylsulfonyl)phenyl)-1,3,5-triazin-2-yl)phenyl)urea]
> 10 µM | 0.1 to 1 µM | > 10 µM | > 10 µM | < 0.1 µM | > 10 µM | > 10 µM | CC(C)NC(=O)Nc1ccc(-c2nc(-c3ccccc3S(C)(=O)=O)nc(N3CCOC[C@@H]3C)n2)cc1 [Example 15, (S)-1-isopropyl-3-(4-(4-(3-methylmorpholino)-6-(2-(methylsulfonyl)phenyl)-1,3,5-triazin-2-yl)phenyl)urea]
> 10 µM | 1 to 10 µM | > 10 µM | > 10 µM | – | > 10 µM | > 10 µM | C[C@H]1COCCN1c1nc(-c2ccc(NC(=O)NCCC(F)(F)F)cc2)nc(-c2ccccc2S(C)(=O)=O)n1 [Example 31, (S)-1-(4-(4-(3-methylmorpholino)-6-(2-(methylsulfonyl)phenyl)-1,3,5-triazin-2-yl)phenyl)-3-(3,3,3-trifluoropropyl)urea]
> 10 µM | > 10 µM | > 10 µM | > 10 µM | – | > 10 µM | > 10 µM | C[C@H]1COCCN1c1nc(-c2ccc(NC(=O)NCCC(O)C(F)(F)F)cc2)nc(-c2ccccc2S(C)(=O)=O)n1 (stereo partly drawn) [Example 38, 1-(4-(4-((S)-3-methylmorpholino)-6-(2-(methylsulfonyl)phenyl)-1,3,5-triazin-2-yl)phenyl)-3-(4,4,4-trifluoro-3-hydroxybutyl)urea]
